Test results reported in publication PMC11530130, “Peripherally restricted PICK1 inhibitor mPD5 ameliorates pain behaviors in murine inflammatory and neuropathic pain models” (JCI Insight, 2024).
“And” between values parts separate entries of the source, which are not always exact repeats. Equal values may be shown once.

Assays:
[1] = Plasma exposure after repeated s.c. administration (10 + 2 + 2 + 2 + 2 μmol/kg), LC-MS/MS; format: in vivo, mouse; details: 10µmol/kg repeated
[2] = Flow-induced dispersion analysis (FIDA), critical micelle concentration; format: physicochemical
From the text: Supplemental Figure S2. FIDA analysis of mPD5. (A) Molecular properties of mPD5.
(B) Taylorgrams for different concentrations of mPD5 using an uncoated capillary.
(C) Taylorgrams for different concentrations of mPD5 using a Poly-L-ornithine capillary.
(D) Taylorgrams for different concentrations of mPD5 using an HS-coated capillary.
(E) Graphical representation of mPD5 absorption using different coating strategies (B-D).
(F) Binding isotherm of mPD5 combining optimal coatings for different concentrations results in a CMC of 12 µM. […]
FIDA was carried out using a fluorescently labelled (AF488-NHS) mPD5 analogue, and fluorescence was recorded at 488 nm using mPD5-AF488 (25% labelling efficiency) as a tracer (100 nM), using the standard protocol recommended by the manufacturer, in short, mPD5 and mPD5-AF488 (25% labelling efficiency) was loaded to the FIDA1 instrument, and peptide sample was injected into the capillary followed by a buffer injection. The diffusion of the peptide could then be observed using 488 nm fluorescence, and the hydrodynamic radius was calculated using the FIDA software 2.0 using a single Gaussian distribution fit, at 75% and curve smoothing. […]
Concentration series of mPD5 ranging from 0.18 mg/mL to 9.37 mg/mL was prepared in buffer containing 50 mM Tris-HCl (pH 7.4) and 125 mM NaCl. Samples were measured at the P12 SAXS Beamline, PetraIII, DESY, Hamburg Germany (2). […]

In the case of `CCCCCCCCCCCCCC(=O)N(CCOCCOCCC(=O)N[C@@H](Cc1c[nH]cn1)C(=O)N[C@@H](Cc1c[nH]c2ccccc12)C(=O)N[C@@H](CC(C)C)C(=O)N[C@@H](CCCCN)C(=O)N[C@H](C(=O)O)C(C)C)CCOCCOCCC(=O)N[C@@H](Cc1c[nH]cn1)C(=O)N[C@@H](Cc1c[nH]c2ccccc12)C(=O)N[C@@H](CC(C)C)C(=O)N[C@@H](CCCCN)C(=O)N[C@H](C(=O)O)C(C)C` [mPD5, myristoyl-NPEG4-(HWLKV)2], the “Plasma exposure, Fig 7B, individual mice” value [1] is reported as 2068 and 1389 and 1614, the “critical micelle concentration (CMC)” value ([2]; FIDA binding isotherm, optimal coatings combined) is reported as 12 µM and the “hydrodynamic radius (RH)” value ([2]; FIDA, micellar mPD5) is reported as “≈ 30 Å”.
